# Where “and” joins values, the source holds several entries; their conditions need not be identical. Equal values may be shown once. Entries after “also recorded” stand apart in the source; their conditions may differ.
# Key:
# INS-1E cells = test: Glucose-stimulated insulin secretion; format: cell-based, rat
# human D2R [1] = biological target: T1, human D2R (Homo sapiens, UniProt P14416); test: cell-based; format: cell-based; settings: for Emax: read-out: D2R mitogenesis Emax
# Target sequence in this assay (P14416 whole entry): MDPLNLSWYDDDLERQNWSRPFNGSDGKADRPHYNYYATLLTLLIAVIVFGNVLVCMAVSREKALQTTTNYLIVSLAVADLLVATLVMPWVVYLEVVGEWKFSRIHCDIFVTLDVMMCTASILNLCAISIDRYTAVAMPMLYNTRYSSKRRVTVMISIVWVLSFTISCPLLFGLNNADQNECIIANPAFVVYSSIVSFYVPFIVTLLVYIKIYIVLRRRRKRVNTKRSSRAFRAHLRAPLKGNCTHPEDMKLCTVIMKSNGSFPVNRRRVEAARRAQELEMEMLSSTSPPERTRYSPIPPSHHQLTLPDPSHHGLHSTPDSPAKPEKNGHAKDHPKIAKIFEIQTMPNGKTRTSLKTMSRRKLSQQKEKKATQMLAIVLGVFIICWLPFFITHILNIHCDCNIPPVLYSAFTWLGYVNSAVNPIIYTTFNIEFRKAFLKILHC
# human D3R [2] = biological target: T2, human D3R (Homo sapiens, UniProt P35462); test: D3R-mediated mitogenesis; format: cell-based; settings: for Emax: read-out: D3R mitogenesis Emax
# human D3R [3] = biological target: T2, human D3R; test: biochemical
# [4] = In vivo pharmacokinetics, plasma and brain levels; set-up: species or system CD1 mice; settings: for Brain Conc.: mean ± SEM, n=3; for Kp at 0.25 h / Kp at 1 h / concentration at 15 min / concentration at 60 min: male, CD1, mouse, 10 mg/kg; for Kp at 0.25 h / Kp at 1 h: brain, iv; for concentration at 15 min / concentration at 60 min: plasma, intravenous
# human D2R [5] = biological target: T1, human D2R; settings: [3H]-(R)-(+)-7-OH-DPAT
# Target sequence in this assay (P14416 whole entry): as above
# human D2R [6] = biological target: T1, human D2R; test: biochemical
# Target sequence in this assay (P14416 whole entry): as above
# human D3R [7] = biological target: T2, human D3R; test: Radioligand competition binding, HEK293 membranes, hD3R; settings: [3H]-(R)-(+)-7-OH-DPAT
# human D4R = test: Radioligand competition binding, HEK293 membranes, hD4R; settings: [3H]-(R)-(+)-7-OH-DPAT
# human DA D4.4 receptors = biological target: T3, human DA D4.4 receptors (Homo sapiens, UniProt P21917); format: cell-based; settings: inhibition of forskolin-stimulated cAMP formation
# T3 sequence (P21917 1-419): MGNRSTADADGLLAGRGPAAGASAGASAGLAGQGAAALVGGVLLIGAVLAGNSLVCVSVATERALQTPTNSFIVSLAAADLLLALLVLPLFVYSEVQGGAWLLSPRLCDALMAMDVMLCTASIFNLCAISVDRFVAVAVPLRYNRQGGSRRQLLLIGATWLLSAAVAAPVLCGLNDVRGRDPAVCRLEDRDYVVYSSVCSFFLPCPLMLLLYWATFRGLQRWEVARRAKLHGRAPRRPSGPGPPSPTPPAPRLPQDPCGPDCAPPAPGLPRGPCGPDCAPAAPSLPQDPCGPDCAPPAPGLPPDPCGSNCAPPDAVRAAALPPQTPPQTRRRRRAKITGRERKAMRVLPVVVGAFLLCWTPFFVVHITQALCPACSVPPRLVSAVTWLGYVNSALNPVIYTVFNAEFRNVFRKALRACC
# human D2R [8] = biological target: T1, human D2R; format: cell-based
# Target sequence in this assay (P14416 whole entry): as the sequence (P14416 whole entry) above
# Target sequence in this assay (P63096 2-354 partner limits assumed): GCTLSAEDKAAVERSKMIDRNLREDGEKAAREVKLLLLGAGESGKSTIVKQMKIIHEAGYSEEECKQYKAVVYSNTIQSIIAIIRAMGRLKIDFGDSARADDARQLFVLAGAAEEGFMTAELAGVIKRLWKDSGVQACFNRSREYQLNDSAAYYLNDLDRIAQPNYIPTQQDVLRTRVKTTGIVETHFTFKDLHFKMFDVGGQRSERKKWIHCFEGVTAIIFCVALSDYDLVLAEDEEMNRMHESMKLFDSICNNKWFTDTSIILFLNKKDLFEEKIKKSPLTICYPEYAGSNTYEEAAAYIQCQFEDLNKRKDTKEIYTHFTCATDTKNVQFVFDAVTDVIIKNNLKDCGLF
# [9] = tested on: Western diet-fed wild-type C57BL/6J mice; test: Oral glucose tolerance testing in diet-induced obesity model; format: in vivo; settings: for fasting blood glucose: 6-h fast
# [10] = tested on: Western diet-fed wild-type C57BL/6J mice; test: Body weight in diet-induced obesity model; format: in vivo; settings: 10 mg/kg i.p. daily, at 12 weeks
# [11] = tested on: Western diet-fed wild-type C57BL/6J mice; test: Insulin tolerance testing in diet-induced obesity model; format: in vivo; settings: 10 mg/kg i.p. daily, 12 weeks
# [12] = Mouse microsomal stability assay; format: in vitro ADME; settings: mouse liver microsomes + NADPH, 1 µM, 30 min
# Sprague-Dawley rats = test: Intracerebroventricular L-DOPA infusion, plasma glucose and insulin; format: in vivo; settings: 10 mM i.c.v. infusion, 5 µL/h, 3.5 h
# [13] = 10 mg/kg i.v., 60 min versus 15 min
# T2 sequence (P35462 whole entry): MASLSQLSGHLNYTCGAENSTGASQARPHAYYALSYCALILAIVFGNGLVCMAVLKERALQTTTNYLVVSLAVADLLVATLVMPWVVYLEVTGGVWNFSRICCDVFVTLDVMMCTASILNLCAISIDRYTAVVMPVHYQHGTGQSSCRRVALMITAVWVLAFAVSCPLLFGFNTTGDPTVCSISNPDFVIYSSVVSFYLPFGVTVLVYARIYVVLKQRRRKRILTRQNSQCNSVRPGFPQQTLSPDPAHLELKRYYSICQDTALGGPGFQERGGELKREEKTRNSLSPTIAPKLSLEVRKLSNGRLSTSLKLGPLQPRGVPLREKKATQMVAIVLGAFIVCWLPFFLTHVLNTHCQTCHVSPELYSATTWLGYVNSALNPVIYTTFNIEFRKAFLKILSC
compound,measurement,setting,value
"CCC[N+]1(C)CCC[C@@H]2Cc3n[nH]cc3C[C@H]21.[I-] (stereo partly drawn) [AB01–59, (4aR,8aR)-5-Methyl-5-propyl-4,4a,5,6,7,8,8a,9-octahydro-2H-pyrazolo[3,4-g]quinolin-5-ium iodide]",decrease in GSIS potency versus unmodified parent,INS-1E cells,5.9 fold
same,reduced efficacy in GSIS versus unmodified parent (decrease),INS-1E cells,48.4%
"CC(C)C[C@H]1C(=O)N2CCC[C@H]2[C@]2(O)O[C@](NC(=O)[C@@H]3C=C4c5cccc6[nH]c(Br)c(c56)C[C@H]4[N+](C)(C)C3)(C(C)C)C(=O)N12.[I-] [AB01–60, (6aR,9R)-5-Bromo-9-(((2R,5S,10aS,10bS)-10b-hydroxy-5-isobutyl-2-isopropyl-3,6-dioxooctahydro-8H-oxazolo[3,2-a]pyrrolo[2,1-c]pyrazin-2-yl)carbamoyl)-7,7-dimethyl-4,6,6a,7,8,9-hexahydroindolo[4,3-fg]quinolin-7-ium iodide]",diminished potency in D2R-mediated mitogenesis versus unmodified parent,human D2R [1],15.6 fold
same,Emax,human D2R [1],88%
same,decrease in GSIS potency versus unmodified parent,INS-1E cells,57.7 fold
same,EC50,human D3R [2],38 ± 11 nM
same,diminished potency in D3R-mediated mitogenesis versus unmodified parent,human D3R [2],11.2 fold
same,Emax,human D3R [2],91%
same,Ki,human D3R [3],17.5 ± 4.9 nM
same,Brain Conc.,"[4]; 10 mg/kg i.v., 15 min",1282.3 ± 130.7 pmol/g
same,plasma levels greater compared to bromocriptine,"[4]; 10 mg/kg i.v., 60 min, listed as BrMeI",8 fold and ~ 8 fold
same,Brain Conc.,"[4]; 10 mg/kg i.v., 60 min",651.9 ± 133.7 pmol/g
same,Kp at 0.25 h,[4],0.3 ± 0.03
same,Kp at 1 h,[4],0.51 ± 0.06
same,concentration at 15 min,[4],4260 ± 381 nM
same,concentration at 60 min,[4],1280 ± 71.1 nM
same,D3R/D2R ratio of binding affinity,human D2R [5],5.57
same,diminished D2R binding affinity compared to unmodified parent compound,human D2R [5],5.3 fold
same,Ki,human D2R [6],3.14 ± 0.34 nM
same,diminished D3R binding affinity compared to unmodified parent compound,human D3R [7],8.5 fold
"Cc1cccc(NC(=O)C[N+]2(C)CCC(c3ccccc3)CC2)c1.[I-] (stereo not shown) [AB01–102, 1-Methyl-1-(2-oxo-2-(m-tolylamino)ethyl)-4-phenylpiperidin-1-ium iodide]",loss of D4R binding affinity compared to unmodified parent,human D4R,61.7 fold
same,diminished potency in D4R cAMP assay compared to unmodified parent,human DA D4.4 receptors,731.9 fold
same,functional behaviour in D4R cAMP assay,human DA D4.4 receptors; relative to (−)-quinpirole,partial agonists
"CC(C)C[C@H]1C(=O)N2CCC[C@H]2[C@]2(O)O[C@](NC(=O)[C@@H]3C=C4c5cccc6[nH]c(Br)c(c56)C[C@H]4N(C)C3)(C(C)C)C(=O)N12 [Bromocriptine, bromocriptine]",less efficacy than DA in Gαi1 recruitment to D2R,human D2R [8],47%
same,glucose tolerance (OGTT) versus vehicle,"[9]; 10 mg/kg i.p. daily, 12 weeks",significant improvements in glucose tolerance; also recorded: improvement in glucose tolerance
same,fasting blood glucose,"[9]; 10 mg/kg i.p. daily, 12 weeks",significantly lower fasting blood glucose
same,fasting blood glucose,"[9]; 10 mg/kg i.p. daily, 12 weeks, listed as bromocriptine",significantly lower fasting glucose
same,glucose tolerance (OGTT) versus i.c.v. vehicle,"[9]; i.c.v. daily, 8 weeks (10 mg/kg)",did not significantly modify glucose tolerance; also recorded: no significant effect on glucose tolerance
same,glucose tolerance,"[9]; systemic administration, 8 weeks, data not shown",sufficient to improve glucose tolerance
same,Emax,human D2R [1],99%
same,body weight versus vehicle,[10],neither systemic bromocriptine nor BrMeI treatments had significant effects on weight; also recorded: no significant effect
same,insulin sensitivity / blood glucose during ITT versus vehicle,[11]; 1.5 U/kg insulin,significant improvements in insulin sensitivity
same,plasma insulin during ITT,[11]; initial 15 min of ITT,significantly enhanced plasma insulin levels
same,EC50,human D3R [2],3.4 ± 1.1 nM
same,Ki,human D3R [3],2.05 ± 0.56 nM
same,Brain Conc.,"[4]; 10 mg/kg i.v., 15 min",995.2 ± 188.0 pmol/g
same,Brain Conc.,"[4]; 10 mg/kg i.v., 60 min",71.1 ± 2.3 pmol/g
same,decrease in brain level by 60 min post-administration,[4]; [13],92.9%
same,decrease in plasma level by 60 min post-administration,[4]; [13],88.2%
same,Kp at 0.25 h,[4],0.74 ± 0.11
same,Kp at 1 h,[4],0.45 ± 0.05
same,concentration at 15 min,[4],1340 ± 52.2 nM
same,concentration at 60 min,[4],159 ± 15 nM
same,D3R/D2R ratio of binding affinity,human D2R [5],3.46
same,% drug remaining,[12],entirely metabolized
same,% drug remaining,[12]; listed as bromocriptine,complete disappearance
same,Ki,human D2R [6],0.59 ± 0.17 nM
N[C@@H](Cc1ccc(O)c(O)c1)C(=O)O [L-DOPA],plasma glucose versus saline vehicle,Sprague-Dawley rats,did not significantly impact
same,plasma insulin versus saline vehicle,Sprague-Dawley rats,did not significantly impact
"CN[C@@H]1Cc2cccc3[nH]c(=O)n(c23)C1 [Sumanirole, sumanirole]",Emax,human D2R [1],110%
same,EC50,human D3R [2],224 ± 24 nM
same,Emax,human D3R [2],180%
